Results as given in patent US6653344B2, “Pharmaceutical preparations containing a dibenzocyclooctane lignan derivative for treatment of neurodegenerative disease” (Elcom Bio Technology Co., Ltd., priority 2000, dated 2003).
“Also recorded” adds a separate entry of the source.

Test system: glutamate-damaged primary cultured rat cortical cells
Test: Neuroprotection against glutamate-induced neurotoxicity, cell viability by MTT assay
Format: cell-based
Design: Viability (%) Pre-treatment / Viability (%) Post-treatment: unit of the concentration uncertain
Settings: for Viability: 1 hr before 100 M glutamate, then 24 hr, control 100, glutamate-treated 0; for Viability (%) Pre-treatment: compound 1 µM for 1 hr before 100 µM glutamate (15 min), then 24 hr in DMEM in the absence of compound; for Viability (%) Post-treatment: glutamate 15 min, washed, 24 hr in the presence of compound 1 µM; for neuroprotective activity, post-treatment (in words): post-treatment with lignan after glutamate; for neuroprotective activity, pre-treatment (in words): pre-treatment with lignan before glutamate; for neuroprotective activity against glutamate-induced neurotoxicity (in words): primary cultures of rat cortical cells, L-glutamate
Protocol: Primary cultures of mixed cortical cells containing both neuron and glia were prepared from fetal rats as described previously (Kim Y C, Kim S R, Markelonis G J and Oh T H (1998) Ginsenosides Rb1 and Rg3 protect cultured rat cortical cells from glutamate-induced neurodegeneration. J. Neurosci. Res. 53: 426-432).
The cortical cells were plated onto collagen-coated dishes at a density of 1×10^6 cells/ml. The cultured cells were grown in DMEM supplemented with 10% heat-inactivated fetal calf serum, 1 mM sodium pyruvate, 100 IU/ml pecicillin and 100 μg/ml streptomycin at 37° C. in a humidified atmosphere of 95% air/5% CO2. cultures were allowed to mature for 2 weeks before being used for experiments.
The lignan compounds to be investigated for having neuroprotective activity or not were dissolved in DMSO(within final culture concentration, 0.1%) and diluted with distilled water and by passing the solution through Milliporemembrane (0.22 μm, Millex-GV, USA) to make sterile state. The solution was cultured, by differentiating the concentration and dosed to neuron cells.
Cortical cells directly isolated from […] fetal were cultured for 14 days. The samples to be tested were treated at different concentrations to cultured cells. After one hour, neurotoxicity was induced by treating 100 μM of glutamate. After 24 hours, the survival cell rate were measured by MTT assay to determine neuroprotective activity of the samples.
To culture broth of the cortical cells during being cultured, MTT(5 mg/ml) was added by 10% of the culture broth. The broth was cultured for more 3 hours. The formed formazan was dissolved by DMSO and was assayed absorption at 540 nm ((Mosmann T (1983) Rapid colorimetric assay for cellular growth and survival: Application to proliferation and cytotoxicity assays. J. Immuno. Methods 65: 55-61)
Deoxychizandrin, gomisin N, schizandrin and wuweizisu C, the important dibenzocyclooctane lignans of Schizandra fruit were evaluated by assessing the viability of cultured cortical neurons after treatment with the neurotoxicant, glutamate. […] After cortical cells were cultured for 14 days, test compounds were dosed at different concentrations and after 1 hour neurotoxicity was induced by 100 μM glutamate. After culturing for 24 hours, the neuroprotective activity was measured. The neuroprotective activity of the compounds were measured by MTT assay for assaying the activity of succinate dehydrogenase. […] And the content of formazan is decreased, too. By using this phenomena, cell survival rate can be measured.
We investigated the protective mechanisms of deoxyschizandrin, gomisin N and wuweizisu C in an attempt to determine at which stage these lignans protected neurons from glutamate-induced toxicity. Cultures were pretreated with the lignans for […] exposure to glutamate(pre-treatment). In addition, some cultures were exposed to glutamate in DMEM for 24 hours in the […] of lignans (post-treatment).
Rat Cortical cultures were treated with compounds for 1 hr before exposure to 100 M glutamate and then maintained for 24 hr. Cell viability was measured by the MTT assay. Optical density (OD) of the control and glutamate-treated were 1.18±0.09 and 0.75±0.07, respectively. Viability was calculated as 100×(OD of glutamate+compound-treated−OD of glutamate-treated)/(OD of control−OD of glutamate-treated). Values given represent the mean SD (n=3).
Rat cortical cultures were treated with compounds at the concentration of 1 M for 1 hr before exposure to 100 M glutamate (15 min) and then maintained in DMEM for 24 hr in the absence of compound (Pre-treatment). Some cortical cultures were exposed to glutamate for 15 min, washed and maintained in DMEN for 24 hr in the presence of compund (Posttreatment). Cell viability was measured by the MTT assay. Optical density (OD) of the control and glutamate-treated were 1.18±0.09 and 0.75±0.07, respectively. Viability was calculated as the same as Table 1. Values given represent the mean SD (n=3). […]

| Compound | Viability (compound 0.1 μM) | Viability (%) Pre-treatment | Viability (compound 1.0 μM, 1 µM) | Viability (compound 1.0 μM, listed as wuwiewisu C, 1 µM) | Viability (compound 5.0 μM) | Viability (%) Post-treatment | neuroprotective activity, post-treatment (in words) | neuroprotective activity, pre-treatment (in words) | neuroprotective activity against glutamate-induced neurotoxicity (in words) | Viability (compound 1.0 μM, listed as gomisin N, 1 µM) | Viability (compound 1.0 μM, listed as deoxyschzandrin, 1 µM) |
| --- | --- | --- | --- | --- | --- | --- | --- | --- | --- | --- | --- |
| COc1c2c(cc3c1-c1c(cc4c(c1OC)OCO4)C[C@H](C)[C@H](C)C3)OCO2 [Wuweizisu C, wuweizisu C] | 30.2 ± 6.3 % | 59.6 ± 5.1 % | 63.9 ± 5.9 % | 63.9% | 60.9 ± 9.6 % | 19.2 ± 7.8% | not post-treatment | neuroprotective | exhibited neuroprotective activities; also recorded: significantly have protective activity | – | – |
| COc1cc2c(c(OC)c1OC)-c1c(cc3c(c1OC)OCO3)C[C@H](C)[C@H](C)C2 [Gomisin N, gomisin N] | 25.2 ± 4.4% | 45.5 ± 9.8 % | 51.3 ± 8.3 % | – | 49.2 ± 9.5 % | 39.6 ± 6.2 % | maintained its activity | maintained its activity | exhibited neuroprotective activities; also recorded: significantly have protective activity | 51.3% | – |
| COc1cc2c(c(OC)c1OC)-c1c(cc(OC)c(OC)c1OC)C[C@H](C)[C@H](C)C2 [Deoxyschizandrin, deoxyschizandrin] | 11.6 ± 5.1% | 20.1 ± 3.1% | 46.2 ± 6.3 % | – | 45.6 ± 3.1 % | 45.9 ± 5.5 % | significant neuroprotective activity | not pre-treated | exhibited neuroprotective activities; also recorded: significantly have protective activity | – | 46.2% |
